{"source": "paper PMC4898484", "about": "(Molecular microbiology, 2015)", "target": "Plasmodium falciparum phosphatidylserine decarboxylase (PfPSD) (Plasmodium falciparum, UniProt Q9GPP8)", "sequence (Q9GPP8 41-315)": "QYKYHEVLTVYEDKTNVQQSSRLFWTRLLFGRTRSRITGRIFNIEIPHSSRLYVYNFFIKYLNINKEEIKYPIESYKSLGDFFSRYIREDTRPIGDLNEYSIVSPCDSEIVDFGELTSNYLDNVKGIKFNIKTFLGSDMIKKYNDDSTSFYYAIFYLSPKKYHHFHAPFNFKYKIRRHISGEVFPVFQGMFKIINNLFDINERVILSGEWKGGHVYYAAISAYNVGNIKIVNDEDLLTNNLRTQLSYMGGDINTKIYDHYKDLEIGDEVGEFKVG", "sequence (Q9GPP8 316-362)": "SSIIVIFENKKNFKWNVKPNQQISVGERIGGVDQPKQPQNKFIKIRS", "experiment": "radiometric decarboxylase assay", "format": "biochemical", "data": [{"compound": "CCCc1ccc(Nc2ccnc3cc(Cl)ccc23)cc1", "note": "[7CPQA, 7-chloro-N-(4-propylphenyl)-4-quinolinamine]", "values": [{"measurement": "IC50", "value": "10 to 100", "unit": "µM"}]}]}
